Assay results as given in patent US9902728B2, “Pyrrolo and pyrazolopyrimidines as ubiquitin-specific protease 7 inhibitors” (Forma Therapeutics, Inc., priority 2014, dated 2018).

Target: T1, USP7 (Homo sapiens, UniProt Q93009)
T1 construct: USP7, construct USP7 (208-1102) 6*His, Viva Biotech; 6xHis (C); purchased Viva Biotech
Experiment: USP7 Assay A (Ubitquin-Rhodamine 110 Assay)
Assay type: biochemical
Settings: USP7 activity in USP7 assay A and B (table does not say which assay per compound); read-out: USP7_IC50
In short: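 Enzyme and compound sat together for 30 min before Ub-Rh110 was added, in buffer of 20 mM Tris-HCl (pH 8.0), 1 mM GSH, 0.03% BGG and 0.01% Triton X-100.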

T1 sequence (Q93009 208-1102): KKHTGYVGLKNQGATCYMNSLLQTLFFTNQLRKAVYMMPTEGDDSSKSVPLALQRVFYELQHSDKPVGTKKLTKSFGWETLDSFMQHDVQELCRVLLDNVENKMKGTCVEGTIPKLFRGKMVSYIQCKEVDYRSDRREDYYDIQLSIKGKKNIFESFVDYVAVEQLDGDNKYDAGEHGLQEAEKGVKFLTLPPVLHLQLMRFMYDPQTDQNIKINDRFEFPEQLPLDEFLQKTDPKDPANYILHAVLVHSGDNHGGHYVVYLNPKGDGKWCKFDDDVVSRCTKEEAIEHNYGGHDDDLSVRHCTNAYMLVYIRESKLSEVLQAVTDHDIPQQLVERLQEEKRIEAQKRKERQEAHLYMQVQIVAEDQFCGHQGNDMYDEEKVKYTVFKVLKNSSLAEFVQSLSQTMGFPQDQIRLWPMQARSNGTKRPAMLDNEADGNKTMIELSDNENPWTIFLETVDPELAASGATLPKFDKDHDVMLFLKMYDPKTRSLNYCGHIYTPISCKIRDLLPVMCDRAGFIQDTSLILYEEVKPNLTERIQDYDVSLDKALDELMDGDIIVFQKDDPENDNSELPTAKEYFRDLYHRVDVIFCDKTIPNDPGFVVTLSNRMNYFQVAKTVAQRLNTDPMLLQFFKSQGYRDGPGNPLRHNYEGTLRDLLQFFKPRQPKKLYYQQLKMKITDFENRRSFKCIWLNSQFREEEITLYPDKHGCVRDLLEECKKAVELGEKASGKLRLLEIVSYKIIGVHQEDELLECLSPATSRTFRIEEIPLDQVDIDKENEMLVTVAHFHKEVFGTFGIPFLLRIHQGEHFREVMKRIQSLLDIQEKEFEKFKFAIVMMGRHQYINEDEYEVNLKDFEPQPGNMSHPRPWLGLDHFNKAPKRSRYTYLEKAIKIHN

Row | SMILES | IC50
1 | O=C(c1ccc(F)cc1)N1CCC(O)(Cn2cnc3c(cnn3-c3ccc(N4CCN5CCCC[C@@H]5C4)cc3)c2=O)CC1 [Compound I-484, (R)-5-((1-(4-fluorobenzoyl)-4-hydroxypiperidin-4-yl)methyl)-1-(4-(octahydro-2H-pyrido[1,2-a]pyrazin-2-yl)phenyl)-1,5-dihydro-4H-pyrazolo[3,4-d]pyrimidin-4-one] | < 200 nM
2 | O=C(OCCCN1CCCC1)N1CCC(O)(Cn2cnc3c(cnn3-c3ccc(F)cc3)c2=O)CC1 [Compound I-486, 3-(Pyrrolidin-1-yl)propyl 4-((1-(4-fluorophenyl)-4-oxo-1,4-dihydro-5H-pyrazolo[3,4-d]pyrimidin-5-yl)methyl)-4-hydroxypiperidine-1-carboxylate] | 1000 to 10000 nM
3 | O=C(c1ccc(N2CCN3CCCC3C2)cc1)N1CCC(O)(Cn2cnc3c(cnn3-c3ccc(F)cc3)c2=O)CC1 (centres unmarked) [Compound I-487] | 1000 to 10000 nM
4 | Cc1cnn(-c2ccc(-n3ncc4c(=O)n(CC5(O)CCN(C(=O)c6cnc(C)o6)CC5)cnc43)cc2)c1 [Compound I-488] | < 200 nM
5 | CC1(C(=O)N2CCC(O)(Cn3cnc4c(cnn4-c4ccc(-c5cnn(C(F)F)c5)cc4)c3=O)CC2)CC1 [Compound I-489] | 200 to 1000 nM
6 | CC1(C(=O)N2CCC(O)(Cn3cnc4c(cnn4-c4ccc(N5CCC6(CC5)CC(F)(F)C6)cc4)c3=O)CC2)CC1 [Compound I-490] | 200 to 1000 nM

Same assay, conditions: USP7 assay A and B (table does not say which assay per compound); read-out: USP7_IC50

Row | SMILES | IC50
7 | CC1(C(=O)N2CCC(O)(Cn3cnc4c(cnn4-c4ccc(F)cc4)c3=O)CC2)CCC1 [Compound I-464] | 200 to 1000 nM
8 | O=C(c1ccc(C2(O)CC2)cc1)N1CCC(O)(Cn2cnc3c(cnn3-c3ccccc3)c2=O)CC1 [Compound I-467] | 1000 to 10000 nM
9 | O=C(c1ccccc1)N1CC[C@](O)(Cn2cnc3c(cnn3-c3ccccc3)c2=O)[C@H](F)C1 [Compound I-469] | 1000 to 10000 nM
10 | CN(C)C(=O)N1CCC(O)(Cn2cnc3c(cnn3-c3ccc(F)c(-c4ccc(F)cc4)c3)c2=O)CC1 [Compound I-475] | 1000 to 10000 nM
11 | CC1(C)CC(NC(=O)N2CCC(O)(Cn3cnc4c(cnn4-c4ccc(F)cc4)c3=O)CC2)C1 [Compound I-482] | > 10000 nM
12 | CN(C)C(=O)Nc1ccc(-n2ncc3c(=O)n(CC4(O)CCN(C(=O)C5CC5)CC4)cnc32)cc1 [Compound I-492] | 1000 to 10000 nM
13 | O=C(C1CC1)N1CCC(O)(Cn2cnc3c(cnn3-c3cccc(N4CCNCC4)c3)c2=O)CC1 [Compound I-498] | < 200 nM
14 | O=C(C1CC1)N1CCC(O)(Cn2cnc3c(cnn3-c3ccc(N4CCNCC4)cc3)c2=O)CC1 [Compound I-499] | 200 to 1000 nM
15 | CN(C)C(=O)N1CCC(O)(Cn2cnc3c(cnn3-c3ccc(Oc4ccccc4)cc3)c2=O)CC1 [Compound I-500] | > 10000 nM
16 | CNS(=O)(=O)Nc1ccc(-n2ncc3c(=O)n(CC4(O)CCN(C(=O)C5CC5)CC4)cnc32)cc1 [Compound I-504, 5-[(1-Cyclopropanecarbonyl-4-hydroxypiperidin-4-yl)methyl]-1-{4-[(methylsulfamoyl)amino]phenyl}-1H,4H,5H-pyrazolo[3,4-d]pyrimidin-4-one] | 1000 to 10000 nM
17 | CN(C)S(=O)(=O)Nc1ccc(-n2ncc3c(=O)n(CC4(O)CCN(C(=O)C5CC5)CC4)cnc32)cc1 [Compound I-505] | 1000 to 10000 nM
18 | CNC(=O)Nc1ccc(-n2ncc3c(=O)n(CC4(O)CCN(C(=O)C5CC5)CC4)cnc32)cc1 [Compound I-506] | 1000 to 10000 nM
19 | CNC(=O)Nc1cccc(-n2ncc3c(=O)n(CC4(O)CCN(C(=O)C5CC5)CC4)cnc32)c1 [Compound I-507] | 1000 to 10000 nM
20 | CN(C)C(=O)N1CCC(O)(Cn2cnc3c(cnn3-c3ccc(N4CCC5(CCNCC5)CC4)cc3)c2=O)CC1 [Compound I-508] | 200 to 1000 nM
21 | O=C(c1cccc(CN2CCCC2)c1)N1CCC(O)(Cn2cnc3c(cnn3-c3ccc(F)cc3)c2=O)CC1 [Compound I-510] | > 10000 nM
22 | CC(CC(=O)N1CCC(O)(Cn2cnc3c(cnn3-c3ccc(F)cc3)c2=O)CC1)n1cccn1 (centres unmarked) [Compound I-513] | 200 to 1000 nM
23 | C[C@@H](CC(=O)N1CCC(O)(Cn2cnc3c(cnn3-c3ccc(F)cc3)c2=O)CC1)n1cccn1 [Compound I-514] | 200 to 1000 nM
